Literature values in patent US20190231888A1, “TEXAPHYRIN AND ANTITUMOR ANTIBIOTIC CONJUGATES” (priority 2016, published 2019).

Details: intravenous, determined in one study; cited from earlier work

lutetium texaphyrin
maximum tolerated dose: 5.2 mg/kg
